Data as given in patent US20160058787A1 (priority 2014, published 2016).

Conditions: in vivo

For sodium polystyrene sulfonate [NSPS], the “reduction of the toxicity and adverse effects of SPS” value was “over 100 folds”.
